Experimental data from US20210323977A1, “PYRROLIDINYL AMIDE COMPOUNDS FOR THE TREATMENT OF AUTOIMMUNE DISEASE” (Hoffmann-La Roche Inc., priority 2018, published 2021).
pIC50: −log10 of the molar value.

target: T1, human TLR7 (Homo sapiens, UniProt Q9NYK1); test: HEK293-Blue-hTLR-7 cells assay; format: cell-based; conditions: HEK293-Blue-hTLR7 cells, SEAP reporter, R848 stimulation, 20 hrs
T1 sequence (Q9NYK1 27-1049): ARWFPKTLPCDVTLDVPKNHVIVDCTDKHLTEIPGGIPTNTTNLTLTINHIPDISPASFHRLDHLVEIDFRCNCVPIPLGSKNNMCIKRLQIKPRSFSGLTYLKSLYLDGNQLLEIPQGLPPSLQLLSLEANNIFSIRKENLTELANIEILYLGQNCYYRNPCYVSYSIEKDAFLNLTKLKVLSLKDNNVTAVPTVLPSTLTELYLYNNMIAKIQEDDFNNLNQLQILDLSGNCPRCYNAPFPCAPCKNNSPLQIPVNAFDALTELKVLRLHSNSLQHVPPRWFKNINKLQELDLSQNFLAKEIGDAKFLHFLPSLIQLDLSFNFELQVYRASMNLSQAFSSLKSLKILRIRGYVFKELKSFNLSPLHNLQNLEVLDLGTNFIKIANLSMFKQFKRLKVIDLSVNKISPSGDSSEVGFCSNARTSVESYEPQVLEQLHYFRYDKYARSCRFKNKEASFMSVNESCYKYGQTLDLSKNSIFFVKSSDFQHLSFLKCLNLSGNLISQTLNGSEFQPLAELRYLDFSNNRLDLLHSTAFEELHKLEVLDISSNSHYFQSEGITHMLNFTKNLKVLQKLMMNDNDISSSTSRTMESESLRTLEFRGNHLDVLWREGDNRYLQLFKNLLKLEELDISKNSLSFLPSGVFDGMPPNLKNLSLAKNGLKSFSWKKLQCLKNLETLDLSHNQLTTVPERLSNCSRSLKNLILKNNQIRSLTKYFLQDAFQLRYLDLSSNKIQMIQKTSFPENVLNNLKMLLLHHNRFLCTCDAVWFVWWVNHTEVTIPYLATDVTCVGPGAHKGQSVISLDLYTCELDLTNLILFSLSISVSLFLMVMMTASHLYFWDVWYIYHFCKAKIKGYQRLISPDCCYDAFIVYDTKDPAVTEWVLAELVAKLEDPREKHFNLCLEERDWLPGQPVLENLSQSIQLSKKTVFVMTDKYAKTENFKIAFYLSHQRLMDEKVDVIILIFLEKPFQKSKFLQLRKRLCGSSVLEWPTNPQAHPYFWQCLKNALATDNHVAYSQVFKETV
From the text: HEK293-Blue-hTLR-7 Cells Assay:
A stable HEK293-Blue-hTLR-7 cell line was purchased from InvivoGen (Cat. #: hkb-htlr7, San Diego, Calif., USA). These cells were originally designed for studying the stimulation of human TLR7 by monitoring the activation of NF-κB. A SEAP (secreted embryonic alkaline phosphatase) reporter gene was placed under the control of the IFN-β minimal promoter fused to five NF-κB and AP-1-binding sites. The SEAP was induced by activating NF-κB and AP-1 via stimulating HEK-Blue hTLR7 cells with TLR7 ligands. Therefore the reporter expression was declined by TLR7 antagonist under the stimulation of a ligand, such as R848 (Resiquimod), for incubation of 20 hrs. The cell culture supernatant SEAP reporter activity was determined using QUANTI-Blue™ kit (Cat. #: rep-qb1, Invivogen, San Diego, Ca, USA) at a wavelength of 640 nm, a detection medium that turns purple or blue in the presence of alkaline phosphatase.
HEK293-Blue-hTLR7 cells were incubated at a density of 250,000˜450,000 cells/mL in a volume of 170 μL in a 96-well plate in Dulbecco's Modified Eagle's medium (DMEM) containing 4.5 g/L glucose, 50 U/mL penicillin, […], […], 2 mM L-glutamine, 10% (v/v) heat-inactivated fetal bovine serum with addition of 20 sL test compound in a serial dilution in the presence of final DMSO at 1% and 10 μL of 20 uM R848 in above DMEM, perform incubation under 37° C. in a CO2 incubator for 20 hrs. Then 20 μL of the supernatant from each well was incubated with 180 sL Quanti-blue substrate solution at 37° C. for 2 hrs and the absorbance was read at 620-655 nm using a spectrophotometer. The signalling pathway that TLR7 activation leads to downstream NF-κB activation has been widely accepted, and therefore similar reporter assay was modified for evaluating TLR7 antagonist.

**Q.** `N#Cc1ccc(N2C[C@@H](C(F)(F)F)[C@H](C(=O)N[C@H]3CNC[C@H]3F)C2)c2cccnc12` [Example 47, Trans-1-(8-cyano-5-quinolyl)-N-[(3S,4R)-4-fluoropyrrolidin-3-yl]-4-(trifluoromethyl)pyrrolidine-3-carboxamide] was tested. Which pIC50 did it give?
**A.** 6.91

**Q.** With `C[C@H]1CN(c2ccc(Cl)c3ncccc23)C[C@@H]1C(=O)NC1CCN(C)CC1` [Example 50, (3R,4R)-1-(8-chloro-5-quinolyl)-4-methyl-N-(1-methyl-4-piperidyl)pyrrolidine-3-carboxamide] as the compound, how does the pIC50 read?
**A.** 6.75

**Q.** With `CN1CCCC(CNC(=O)C2CN(c3ccc(C#N)c4ncccc34)CC23CC3)C1` (centres unmarked) [Example 51, 5-(8-Cyano-5-quinolyl)-N-[(1-methyl-3-piperidyl)methyl]-5-azaspiro[2.4]heptane-7-carboxamide] as the compound, how does the pIC50 read?
**A.** 6.70

**Q.** With `C[C@@H]1CN(c2ccc(C#N)c3ncccc23)C[C@H]1C(=O)N[C@H]1CNC[C@H]1F` [Example 56, Trans-1-(8-cyano-5-quinolyl)-N-[(3S,4R)-4-fluoropyrrolidin-3-yl]-4-methyl-pyrrolidine-3-carboxamide] as the compound, how does the pIC50 read?
**A.** 6.55

**Q.** With `C[C@H]1CN(c2ccc(C#N)c3nccnc23)C[C@@H]1C(=O)NC1CCN(C2CCNCC2)CC1` [Example 60, (3R,4R)-1-(8-cyanoquinoxalin-5-yl)-4-methyl-N-[1-(4-piperidyl)-4-piperidyl]pyrrolidine-3-carboxamide] as the compound, how does the pIC50 read?
**A.** 6.31
